The source of these data is patent publication US20090305955A1, “Cyclopeptide with Anti-Cancer Activity Derived from Collagen Type IV” (priority 2006, published 2009).

Where a SMILES comes first, the peptide text is derived from it.

What all share (type): cell-based, human
For assay [1], the system named is HUVEC cells. In words: HUVEC cell proliferation.
In another assay the test system is phospho-FAK. The experiment in a line: Phospho-FAK immunolabelling, HUVEC cells. The settings on record: 20 μM, 48 h. The protocol: (§1) FIG. 22: Effect of YSNSG (SEQ ID NO: 3) cyclopeptide on the organization of the cytoskeleton of HUVEC cells. The cells were cultivated on glass slides in the absence (control) or in the presence of 20 μM of YSNSG (SEQ ID NO: 3) cyclopeptide. After 48 h of incubation, the cells were fixed, permeabilized, incubated with phalloidin (A) or with an anti-Phospho-FAK antibody (B) then with Hoechst-33342. The slides were observed under a confocal microscope;
(§2) The cells were seeded onto sterile glass slides placed in 24-well plates (2×10^4 cells/well) in a suitable medium containing 5% serum in the presence or absence of YSNSG (SEQ ID NO: 3) cyclopeptide. After 24 and 48 hours incubation, the cells were fixed for 15 minutes in methanol. Three washes of 5 minutes in TBS-T were carried out, then the cells were incubated for 30 minutes at ambient temperature in a saturation solution (TBS-T containing 3% BSA). The cells were then incubated for 2 hours at ambient temperature in the presence of primary antibody diluted to 1/100 in TBS-T containing 3% BSA.

Assay [2] relates to HUVEC cells. In words: Formation of capillary pseudotubes on Matrigel. The settings on record: 20 μM. The method, then: (§3) The in vitro anti-angiogenic activity of the cyclopeptide YSNSG (SEQ ID NO: 3) was measured on the formation of capillary pseudotubes by endothelial HMEC-1 or HUVEC cells deposited on a Matrigel mat.
(§4) A solution of Matrigel (ECM gel: 10 mg/ml) was deposited in a sterile manner in 24-well plates (Nunclon) in an amount of 250 μl per well onto piled ice. Gel formation was obtained by incubating the plate at 37° C. for 30 min. HMEC-1 cells or HUVEC cells at sub-confluence were detached from their plastic culture support by adding trypsin/EDTA then taken up into suspension in the culture medium for endothelial cells and diluted to a concentration of 2×10^5 cells per ml. 100 μl volumes of this cell suspension were deposited on the gel surface. After incubating for 1 hour at 37° C. to allow cell adhesion, the various peptides were added in solution to 400 μl of the culture medium (final concentration 10 or 20 μM). Pseudotube formation was observed under the microscope and photographed, after incubating for 24 hours. Quantification was carried out using image analysis software.

The subject of another assay is u-PA. In words: Zymography in the presence of gelatine and plasminogen, HUVEC conditioned medium. The settings on record: 20 μM. The protocol:
FIG. 20: Effect of YSNSG (SEQ ID NO: 3) cyclopeptide on the secretion of plasminogen activators. The secretion of u-PA and t-PA was analyzed by zymography in the presence of gelatine and plasminogen (A) in a medium conditioned by HUVEC cells in the absence (control) or in the presence of 20 μM of cyclopeptide YSNSG (SEQ ID NO: 3). Quantification was carried out using Bio 1D software (B);
To determine the plasminogen activities, conditioned media of UACC-903 cells were analyzed by polyacrylamide gel electrophoresis in the presence of SDS and containing 1 mg/ml of gelatine and 10 μg/ml of plasminogen. After electrophoresis, the gels were incubated overnight at ambient temperature in a 100 mM glycine, 5 mM EDTA, pH 8.0 buffer.

The next assay deals with HMEC-1 cells. The experiment in a line: Formation of capillary pseudotubes on Matrigel. The settings on record: 24 hours. The protocol: FIG. 17: In vitro anti-angiogenic activity of cyclopeptide YSNSG (SEQ ID NO: 3). A: microscope photographs of the network of capillary pseudotubes of HMEC-1 endothelial cells after 24 hours incubation in the absence of peptide (control; 1), with the cyclopeptide YSNSG (SEQ ID NO: 3) at a concentration of 10 or 20 μM (2 and 3 respectively) or with the linear heptapeptide CNYYSNS (SEQ ID NO: 5) (20 μM) (positive control; 4). B: quantification of number of pseudotubes in photographs in A;
as §3
as §4, with “After incubating for 1 hour at 37° C. to allow cell adhesion, the various peptides were added in solution to 400 μl of the culture medium (final concentration 10 or 20 μM). Pseudotube formation was observed under the microscope and photographed, after incubating for 24 hours.” left out

Another assay deals with actin cytoskeleton. The experiment in a line: Labelling actin F (phalloidin), HUVEC cells. The settings on record: 20 μM, 48 h. The protocol:
as §1
The cells were seeded onto sterile glass slides placed in a 24-well plate (2×10^4 cells/well) in a suitable medium containing 5% of serum, in the presence or absence of the cyclopeptide YSNSG (SEQ ID NO: 3). After 24 and 48 hours incubation, the cells were fixed with 3.7% formaldehyde for 10 minutes at ambient temperature and permeabilized for 3 minutes with an acetone solution at −20° C. Three 5 minute washes in PBS were carried out, then the cells were incubated for 30 minutes at ambient temperature in a saturation solution (PBS containing 1% bovine serum albumin). The cells were then incubated for 1 hour with phalloidin coupled with Alexa Fluor® 568 (diluted 1/40 in PBS containing 1% BSA) then washed 3 times for 5 minutes with PBS.

Assay [3] concerns HUVEC cells. The experiment in a line: Scar wounding technique (artificial wound model). The settings on record: 48 h incubation, 20 μM. The protocol:
FIG. 18: In vitro inhibition of HUVEC cell migration in the presence of YSNSG (SEQ ID NO: 3) cyclopeptide. Microscope photographs of artificial wounds produced on a monolayer of endothelial cells at T0 and T48h in the absence of peptide (control) or in the presence of 20 μM of YSNSG (SEQ ID NO: 3) cyclopeptide;
1×10^5 endothelial cells were seeded into 24-well plates and incubated for 24 hours at 37° C. A wound was made in the cellular monolayer at the centre of the well using a 200 μl cone point. The cells were washed with PBS to eliminate cell debris then incubated in the presence or absence of the cyclopeptide YSNSG (SEQ ID NO: 3). Closing of the wound, a witness to the migratory properties of the cells, was observed under the microscope and photographed after 48 hours incubation.

The next assay deals with β1 sub-unit of integrin. In words: β1 integrin immunolabelling, HUVEC cells. The settings on record: 20 μM, 48 h. The protocol:
FIG. 23: Effect of YSNSG (SEQ ID NO: 3) cyclopeptide on the distribution of β1 integrin subunits on the surface of HUVEC cells. The cells were cultivated on glass slides in the absence (control) or in the presence of 20 μM of YSNSG (SEQ ID NO: 3) cyclopeptide. After 48 h of incubation, the cells were fixed and incubated in the presence of antibodies directed against the β1 integrin subunit. The slides were observed using a confocal microscope.
as §2

Consider `NC(=O)CC1NC(=O)C(CO)NC(=O)C(Cc2ccc(O)cc2)NC(=O)CNC(=O)C(CO)NC1=O` (stereo not drawn) [cyclopeptide YSNSG, cyclopeptide YSNSG (SEQ ID NO: 3)] (cyclo(GYSNS); configuration not given here), for which, in the assay with HUVEC cells [1], the “cell proliferation of HUVEC cells” value was “did not modify”. Moreover, in the assay on phospho-FAK, the “expression of the phosphorylated form of focal adhesion kinase (phospho-FAK)” value is given as “reduction”. Moreover, in the assay on HUVEC cells [2], the “inhibition of capillary pseudotube formation” value is given as 45%. Moreover, the “reduction in the production of u-PA” value in the assay with u-PA is on record as −27%. In addition, the “reduces the formation of pseudotubes” value was 40% in the assay on HMEC-1 cells (10 μM) and “up to 70%” in the assay on HMEC-1 cells (20 μM). Also, in the assay on actin cytoskeleton, the “organization of the actin cytoskeleton” value is listed as “modification”. The “inhibition of the migration of the HUVEC cells” value with HUVEC cells [3] came out at 83%. Besides, the “Expression of the β1 sub-unit of integrin at the cellular periphery” value with β1 sub-unit of integrin is “enhanced”.
